One assay concerns the target T1, human CA I (Homo sapiens, UniProt P00915).
T1 construct: purchased Sigma Chemical Co
The assay is described as follows: CA I inhibition, CO2 hydration, Maren's micromethod (E-I technique). Format: biochemical. To be noted: 0C, veronal buffer, calculated as for the monomer for complexes. The text has this: (§1) Introduction Sulfonamide inhibitors of the zinc enzyme carbonic anhydrase (CA, EC 4.2.1.1) are widely used pharmacological agents in the treatment of a variety of disorders. […] 3,11 As we are also interested in exploring the coordination chemistry of sulfonamide CA inhibitors, in addition to their pharmacological applications, 1,4,11 a study is reported here on the preparation and characterization of metal complexes containing 4 and divalent metal ions such as Co(II), Ni(II), Cu(II), Zn(II), and Cd(II). In fact 4 is the first disulfonamide for which such a study was done. Here we report the data on these new derivatives, as well as their inhibition properties against two isozymes, CA I and CA II. Mention should be made that CA I inhibition data for the parent ligand, 1,3,4-thiadiazole-2,5- disulfonamide are published here for the first time. Materials and Methods Melting points were recorded on a heating plate microscope and are not corrected. FTIR spectra were obtained on thin films of pure compound, with a Perkin Elmer 1600 instrument, in the range 200 4000 cm"1. Electronic spectra were obtained by the diffuse reflectance technique in MgO as reference, with a Perkin Elmer Lambda 17 apparatus. Conductimetric measurements were done in DMF solutions, at 25C (concentrations of 1 mM of complex) with a Fisher conductimeter. 1n- and 13C-NMR data were obtained in DMSO-d as solvent with a Varian Gemmini 300 spectrometer. Chemical shifts are expressed as values relative to tetramethylsilane as internal standard. […] Thermogravimetric measurements were done in air, at a heating rate of 10C/min., with a Perkin Elmer 3600 thermobalance. Sulfonamide 4 used in the syntheses was prepared as described earlier by us.11 Metal salts, organic reagents used for preparing the ligand 4 and solvents were from Aldrich and were used without additional purification. Bovine CA II and human CA I was from Sigma Chemical Co. Inhibitors were assayed by […] micromethod 12, in the conditions of the E-I (enzyme-inhibitor) technique, at 0C in veronal buffer. IC0 values represent the molarity of inhibitor producing a 50% decrease of CA specific activity for the CO2 hydration reaction. […] The precipitated complexes were filtered and air dried. […] According to our method 6a the coordination compounds of sulfonamides were prepared starting from the sodium salt of the ligand, in aqueous milieu, whereas according to Borras' group they were obtained in the presence of ammonia (or other amines, such as pyridine, ethylenediamine, imidazole, etc), in alcohol as solvent.14 In such cases, the amines are also coordinated to the metal ions, in addition to the sulfonamide ligands. In the present study, we prepared and characterized both types ofderivatives, working with the sodium salt of4, but also with the ligand in the presence of ammonia, in both cases in a 1:1 molar ratio ligand:metal salt. […] Table I: Complexes 5-14 prepared and their elemental analysis data (S stands for the doubly deprotonated species of sulfonamide 4). […] Table II: Spectroscopic, magnetic and conductimetric data for complexes 5-10 as compared to ligands 4. Comp. IR.

The target of the next assay is T2, Bovine CA II (Bos taurus, UniProt P00921).
T2 construct: purchased Sigma Chemical Co
T2 sequence (P00921 whole entry): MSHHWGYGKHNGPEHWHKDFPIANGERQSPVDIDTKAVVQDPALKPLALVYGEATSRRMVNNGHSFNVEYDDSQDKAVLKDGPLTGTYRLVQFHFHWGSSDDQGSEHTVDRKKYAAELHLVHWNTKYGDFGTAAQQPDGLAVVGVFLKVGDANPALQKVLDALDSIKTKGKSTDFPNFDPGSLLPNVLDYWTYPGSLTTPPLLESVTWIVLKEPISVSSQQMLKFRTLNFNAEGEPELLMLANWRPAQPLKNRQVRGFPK
Kind of assay: CA II inhibition, CO2 hydration, Maren's micromethod (E-I technique). The note with it: 0C, veronal buffer, calculated as for the monomer for complexes. Format: biochemical.
From the text: as §1

T1 sequence (P00915 whole entry): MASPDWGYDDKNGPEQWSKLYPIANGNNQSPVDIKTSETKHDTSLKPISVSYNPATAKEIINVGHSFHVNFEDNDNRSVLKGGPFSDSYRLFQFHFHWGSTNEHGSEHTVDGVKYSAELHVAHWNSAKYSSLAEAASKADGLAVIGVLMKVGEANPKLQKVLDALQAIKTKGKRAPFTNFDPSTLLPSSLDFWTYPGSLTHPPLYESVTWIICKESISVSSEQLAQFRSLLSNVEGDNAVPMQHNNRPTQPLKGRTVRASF

For the substance [CdS(NH3)2]o [Compound 14], the results for the IC50 on human CA I and on Bovine CA II were 0.185 µM and 0.019 µM, respectively.
As for [CdS(OH2)2] [Compound 9], the half-inhibitory concentration (IC50) on human CA I is 0.18 µM; on Bovine CA II it was 0.017 µM.
On to [CoS(NH3)2]n [Compound 10], for which the half-maximal inhibitory concentration (IC50) at human CA I was 0.36 µM; on Bovine CA II it was 0.042 µM.
Consider [CuS(NH3)2] [Compound 12], for which the IC50 is 0.185 µM at human CA I and 0.027 µM at Bovine CA II.
Turning to [CuS(OH2)2]n [Compound 7], the concentration for half-maximal inhibition (IC50) is 0.175 µM on human CA I and 0.024 µM on Bovine CA II.
For [NiS(NH3)2], [Compound 11] the same measures were 0.44 µM and 0.041 µM.
For [NiS(OH2)2]n [Compound 6] the same measures were 0.39 µM and 0.045 µM.
[ZnS(NH3)2] [Compound 13]: the IC50 at human CA I is 0.205 µM; on Bovine CA II, 0.022 µM.
For [ZnS] [Compound 8], the IC50 is 0.21 µM at human CA I and 0.028 µM at Bovine CA II.

(Values after publication PMC2364987 (Metal-Based Drugs, 1995).)
